Results on 2 compounds are retold here after PMC10272271, “MAM-2201 acute administration impairs motor, sensorimotor, prepulse inhibition, and memory functions in mice: a comparison with its analogue AM-2201” (Psychopharmacology, 2023).

Assay [1] has as its target T1, murine CB2 receptors (Mus musculus, UniProt P47936).
T1 construct: membranes from mouse brain and spleen were used, respectively; from tissue; host or cells: mouse spleen membranes, CD-1 mice
Kind of assay: [3H]-CP-55,940 competition binding, mouse spleen membranes. The procedure:
To evaluate the affinity of synthetic cannabinoids for murine CB1 and CB2 receptors, membranes from mouse brain and spleen were used, respectively. Following excision from mice, tissues were suspended in 50 mM Tris HCl, pH 7.4 at 4 °C. The mouse brain and spleen tissues were homogenized with a Polytron and subsequently centrifuged for 10 min at 2000 × g. The resulting supernatants were filtered, centrifuged for 20 min at 40,000 × g and the pellets were used for competition binding experiments (Vincenzi et al. [2013]).
Competition binding experiments were carried out incubating 0.5 nM [^3H]-CP-55,940 (Perkin Elmer Life and Analytical Sciences, USA) and different concentrations of the tested compounds for 90 or 60 min at 30 °C for CB1 or CB2 receptors, respectively. […] Non-specific binding was determined in the presence of 1 mM WIN 55,212–2 (Vincenzi et al. [2013]). Bound and free radioactivity were separated by filtering the assay mixture through Whatman GF/C glass fiber filters using a Brandel cell harvester (Brandel Instruments, Unterföhring, Germany). The filter-bound radioactivity was counted using a Packard Tri Carb 2810 TR scintillation counter (Perkin Elmer Life and Analytical Sciences, USA).
The protein concentration was determined according to a Bio-Rad method (500–0006; Bio-Rad Laboratories, Hercules, CA, USA) with bovine serum albumin as a reference standard. […]

The target in assay [2] is T2, human CB1 receptors (Homo sapiens, UniProt P21554).
T2 construct: host or cells: CHO cells
Kind of assay: Cyclic AMP assay, hCB1 CHO cells. The assay is classed as cell-based. The note with it: for agonist behaviour (inhibition of forskolin-stimulated cAMP production): CHO cells, human CB1. How it is done: CHO cells transfected with human CB1 or CB2 receptors were washed with PBS, detached with trypsin, and centrifuged for 10 min at 200 × g. The pellet containing 1 × 10^6 cells/assay was suspended in 0.5 ml of buffer containing150 mM NaCl, 2.7 mM KCl, 0.37 mM NaH2PO4, 1 mM MgSO4, 1 mM CaCl2, 5 mM HEPES, 10 mM MgCl2, and 5 mM glucose, at pH 7.4 and 37 °C. Cells were pre-incubated with 0.5 mM of the phosphodiesterase inhibitor 4-(3-butoxy-4-methoxybenzyl)-2-imidazolidinone (Ro 20–1724;) for 10 min in a shaking bath at 37 °C. The potency of the examined compounds to inhibit adenylate cyclase activity was determined in the presence of forskolin 1-µM stimulation. The reaction was terminated by the addition of cold 6% trichloroacetic acid (TCA) and the final aqueous solution was tested for cyclic AMP levels by a competition protein binding assay (AlphaScreen cAMP Detection Kit, Cat. Number 6760635D, Perkin Elmer Life and Analytical Sciences, USA) following the manufacturer’s instructions; Vincenzi et al. [2013]).
The protein concentration was determined according to a Bio-Rad method (500–0006; Bio-Rad Laboratories, Hercules, CA, USA) with bovine serum albumin as a reference standard. Inhibitory binding constants, Ki, were calculated from the IC50 values according to the Cheng and Prusoff equation: Ki = IC50/(1 + [C*]/KD*), where [C*] is the concentration of the radioligand and KD* its dissociation constant. Functional experiments were analyzed by non-linear regression analysis using the equation for a sigmoid concentration–response curve (GraphPad Prism, USA). All the data are expressed as the mean ± SEM of three independent experiments.
For orientation: Cyclic AMP is a second messenger, typically raised through Gs and lowered through Gi signalling.

In assay [3] the test system is CD-1 male mice. In words: Novel Object Recognition (NOR) test. The assay is classed as in vivo, mouse. The procedure: This test was performed according to the method reported by Ennaceur and Delacour ([1988]) and Antunes and Biala (2012). The test was conducted in three phases: habituation, familiarization, and choice. Firstly, CD-1 mice (n = 10/group) were subjected to a 3-day habituation phase, conducted by placing each animal into the NOR chamber (a square open field 60 cm × 60 cm × 40 cm, dark PVC plastic box) located in a dimly lit (50 lx), sound-attenuated and acclimatized room. Mice were allowed to explore freely for 20 min/day. No objects were placed in the box during the habituation trial. Twenty-four hours (h) after last habituation section, the familiarization trial was conducted by placing the mouse in the field in which two identical objects (A, A) were positioned in the corners of the arena approximately 6 cm from the walls. Mice were placed at the mid-point of the wall opposite to the objects and allowed to explore them for 15 min. Fifteen minutes after the familiarization phase, mice were injected with vehicle or drug (MAM-2201 and AM-2201) and tested in two consecutive choice sections performed 2 h (short-term memory) and 24 h (long-term memory) after the drug administration. During the choice test at 2 h, one of the two familiar objects (A) was replaced with a new one (novel; B), different in shape, dimension, and color. Each mouse was then placed in the apparatus and left free to explore the objects (A and B) for 5 min. In the choice test given at 24 h, the mice explored the open field for 5 min in the presence of one familiar (A) and one novel object (C, different from B). Exploration was defined as the time (s) during which the mouse nose was in contact with the object or directed toward it at a distance ≤ 2 cm. Turning around the object was not considered as exploratory behavior.
All experiments were performed using the ANY-maze video tracking system (Ugo Basile, application version 4.99 g Beta) and subsequently analyzed by an observer blind to the mouse treatment and to which object was the novel one. Exploration time of familiar (A) and novel (B) object was detected. The novel object preference was quantified as the Recognition Index (RI) calculated as: RI=novelB-familiarA/novelB+familiarA. Using this metric, scores approaching zero reflects no preference (impairment of recognition memory), positive values reflect preference for the novel object (good recognition memory) while negative numbers reflect preference for the familiar (impairment of recognition memory). Moreover, the total exploration time (s) spent by the animal in the choice phase at 2 h (familiar A + novel B) and 24 h (familiar A + novel C) was calculated to investigate the effect of drugs on object exploration.
The objects to be discriminated by mice were 7 sets of novel and familiar objects of different material (plastic, glass, or ceramic), shape (cube, parallelepiped, and cylinder), dimension (height: 3–8 cm; width: 6–8), and color (light yellow, red and blue). The set of objects used in the familiarization phase (two identical A, A objects) was used in the subsequent vehicle/drug conditions at 2 and 24 h. The choice of object for novel or familiar was counterbalanced and the position of each object was also alternated between trials to avoid any misinterpretation of data. The object weight was such that they could not be displaced by mice. To avoid mice olfactory cues, objects and apparatus were carefully cleaned with a dilute (5%) ethanol solution and water between animal trials and also between familiarization and choice phase (executed 2 and 24 h after the familiarization phase). Animals that spent less than 10 s exploring both objects were excluded from the study and replaced by other animals.

T2 sequence (P21554 whole entry): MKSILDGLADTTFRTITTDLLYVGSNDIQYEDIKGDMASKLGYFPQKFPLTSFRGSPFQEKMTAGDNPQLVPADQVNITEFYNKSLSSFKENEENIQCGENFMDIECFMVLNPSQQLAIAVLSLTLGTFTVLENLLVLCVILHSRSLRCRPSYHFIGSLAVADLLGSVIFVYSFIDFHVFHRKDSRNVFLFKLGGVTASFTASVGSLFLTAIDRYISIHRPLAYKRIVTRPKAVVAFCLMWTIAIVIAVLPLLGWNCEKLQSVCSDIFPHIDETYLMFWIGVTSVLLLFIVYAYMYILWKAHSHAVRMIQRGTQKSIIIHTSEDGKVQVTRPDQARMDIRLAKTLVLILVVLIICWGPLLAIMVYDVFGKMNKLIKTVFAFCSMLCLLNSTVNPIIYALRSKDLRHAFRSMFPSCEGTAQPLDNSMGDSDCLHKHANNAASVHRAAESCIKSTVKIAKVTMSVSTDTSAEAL
T1 sequence (P47936 whole entry): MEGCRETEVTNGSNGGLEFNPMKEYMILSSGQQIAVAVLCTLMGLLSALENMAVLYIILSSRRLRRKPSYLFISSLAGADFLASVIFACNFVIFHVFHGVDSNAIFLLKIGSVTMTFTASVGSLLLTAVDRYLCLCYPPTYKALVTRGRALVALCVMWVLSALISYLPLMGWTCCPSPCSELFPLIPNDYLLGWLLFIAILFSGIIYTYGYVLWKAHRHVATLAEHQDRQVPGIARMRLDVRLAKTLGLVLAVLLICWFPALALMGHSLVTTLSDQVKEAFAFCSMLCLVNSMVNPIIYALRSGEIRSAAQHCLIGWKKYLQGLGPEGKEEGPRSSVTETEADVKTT

What is called Ki is a measure of affinity in units of concentration, obtained from inhibition or displacement. A higher Ki goes with a looser hold on the target. For orientation: IC50 means the concentration at which inhibition is half-maximal. Consider `O=C(c1cccc2ccccc12)c1cn(CCCCCF)c2ccccc12` [AM-2201, 1-[(5-Fluoropentyl)-1H-indol-3-yl](1-naphthylenyl) methanone], for which, in assay [1], the affinity corresponds to a Ki of 14.6 ± 1.2 nM. It took 2.84 ± 0.21 nM to reach half-maximal inhibition in assay [2] (IC50). Besides, in assay [2], the “agonist behaviour (inhibition of forskolin-stimulated cAMP production)” value was “full agonists”. The “effect on Total Object Exploration (TOE) time” value in assay [3] (0.1 mg/kg i.p.) is “did not alter”; in assay [3] (1 mg/kg i.p., 2 and 24 h) it was “impaired”. The “effect on Recognition Index (RI)” value is reported as “RI reduction” in assay [3] (0.1 mg/kg i.p., 2 h); “reversal” in assay [3] (1 mg/kg i.p., 2 h); “significant reduction” in assay [3] (0.1 and 1 mg/kg i.p., 24 h).
Turning to `Cc1ccc(C(=O)c2cn(CCCCCF)c3ccccc23)c2ccccc12` [MAM-2201, 1-[(5-fluoropentyl)-1H-indol-3-yl](4-methyl-1-naphthalenyl) methanone], the inhibition constant Ki in assay [1] stood at 9.6 ± 1.9 nM. Moreover, half-maximal inhibition in assay [2] (IC50) required 1.26 ± 0.56 nM. Further, the “agonist behaviour (inhibition of forskolin-stimulated cAMP production)” value in assay [2] is recorded as “full agonists”. Also, the “effect on Total Object Exploration (TOE) time” value in assay [3] (0.1 mg/kg i.p.) is “did not alter”; in assay [3] (1 mg/kg i.p., 2 and 24 h), “impaired”. For the same compound, the “effect on Recognition Index (RI)” value is reported as “significantly reduced” in assay [3] (0.1 mg/kg i.p., 2 h); “negative score” in assay [3] (1 mg/kg i.p., 2 h); “significant decrease” in assay [3] (0.1 and 1 mg/kg i.p., 24 h).
